What was measured:
chick embryos = test: Early embryonic chick culture: heart development (MF20) after HCy, Li or Wnt3A exposure, FA/inositol rescue; assay type: in vivo, chick (Gallus gallus)
Procedure: Pathogen-free White Leghorn chick (Gallus gallus; Charles River, Mass.) and quail (Coturnix coturnix japonica; Strickland Farms, Ga.) embryos were used to analyze the effects of HCy on early embryogenesis. The early processes of heart development are well conserved among vertebrates and the avian model allows for more precise timing of exposure in early embryos. The incubation methodology using agarose-albumin has been described previously (Darnell and Schoenwolf, 2000). Briefly, the experimental paradigm involved exposing specific early stages of chick embryos, at HH stages 4 to 7 (Hamburger and Hamilton, 1951), to different concentrations of HCy (L-homocysteine thiolactone hydrochloride, Sigma) made up in physiological saline. Final concentrations of HCy included 30 μM, 50 μM, 75 μM and 100 μM. The minimal teratogenic dose was determined empirically to be 50 μM. This fit within the concentration range of 30 μM to 300 μM used by others that induced heart defects at later stages of development (Boot et al., 2004). Control embryos were incubated using the vehicle, physiological saline, in the agarose-albumin medium. Control and experimental cultures were incubated on the agarose-albumin plates for either 8 or 24 hours.
Carrier-free, recombinant mouse Wnt3A was purchased from R&D Systems (Minneapolis, Minn.). Wnt3A concentrations were empirically tested to find those that would induce cardiac defects but maintain embryonic viability. Wnt3A was tested at concentrations of 2 ng, 10 ng, 20 ng, 50 ng and 100 ng per ml. Concentrations of 2 ng/ml and 10 ng/ml were both effective in inducing cardiac defects. Both Wnt3A concentrations were used in the FA rescue experiments, as described. For the FA rescue experiments, folate (folic acid, Sigma-Aldrich) was added at a concentration of 2 μg, 5 μg or 10 μg per ml. […] For the experiments using inositol (myo-inositol, Sigma) supplementation, a concentration of 50 mg/ml was used.
The main embryonic defects related to the timing of embryonic exposure; the regions that were primarily affected related to an anterior-to posterior (AP) wave of development along this embryonic axis. The exposure effects ranged from early effects (e.g. no cardiac tissue, heart development occurring anterior to neural tissue, cardiabifida) to later effects, such as wide hearts and left looping (Table 1). The cardiac phenotypes observed with early HCy exposure were similar, although not identical, to those obtained from previous studies of Li exposure on avian heart development (Manisastry et al., 2006). The Wnt/β-catenin modulated genes Hex and Isl1 in the chick embryo also were similarly repressed with HCy, as with Li in the chick cardiogenic region. […] Investigation of regulatory gene activity in chick embryos indicates Li, HCy and Wnt3A suppress Wnt-modulated genes Hex and Islet-1 in the heart fields.
To define the effective dose of Wnt3A needed to induce cardiac dysmorphogenesis, Wnt3A was tested at concentrations of 2 ng, 10 ng, 20 ng, 50 ng, and 100 ng per ml. The minimal effective doses of Wnt3A that induced cardiac and neural anomalies were 2 ng/ml and 10 ng/ml, respectively. Using these concentrations, the inventors analyzed whether FA supplementation of media at 10^3-fold higher concentrations, that is 2 μg/ml or 10 μg/ml, would provide protection against the augmentation of canonical Wnt3A signaling.

[1] = system: Hex and Islet-1 (Isl1) gene expression; test: In situ hybridization of Hex and Isl1 in avian heart fields after Li, HCy or Wnt3A with or without FA; assay type: in vivo, chick; settings: 8 hours of exposure; HH stages 3+/4
Procedure: In situ hybridizations on control and experimentally manipulated chick embryos were carried out using digoxigenin-labeled riboprobes with alkaline phosphatase detection (Linask et al., 2001). Images of whole-mounted chick embryos were taken with a Nikon DS-L2 camera unit. Probes for chick Hex were provided by Parker Antin, University of Arizona and probes for chick Islet-1 (Isl1) were provided by Thomas Jessell, Columbia University, NY.
Chick embryos (HH stages 3+/4) were incubated on agarose albumin supplemented with HCy (50 μM). Instead of giving a single injection in ovo, embryos were exposed to HCy for 8 hours in order to define the effect on early cardiac gene expression. Another group of embryos were exposed to HCy for 24 hours at which time the effects on gene expression were determined. To analyze the effects during the looping stages, incubation was stopped after between 22 and 24 hours. After the 8-hour incubation, Li and HCy suppressed Hex and Isl1 expression in the cardiogenic crescent (FIG. 5).
The inventors next analyzed whether FA rescues the downregulation of Hex and Isl1. Chick embryos were exposed to Li, HCy or Wnt3A, as above, with and without 10 μg/ml of FA; the experiments were terminated after either an 8-hour or 24-hour exposure period, at which time in situ hybridizations for gene expression were performed. After 8 hours of exposure, Li, HCy and Wnt3A all suppressed Hex (FIGS. 9D, G, J) and Isl1 (FIGS. 10D, G, J) compared with the control embryonic expression patterns (FIG. 9A; FIG. 10A). […] Thus, FA supplementation suppressed the potentiation of the inhibitory Wnt signaling, allowing for normal induction of Hex and Isl1 gene expression.

HTR-8/SVneo cells = test: In vitro wound assay of human trophoblast cell migration; assay type: cell-based; settings: HCy exposure experiments; scrape wound
Source text: In previous studies by the inventors analyzing the effects of lithium and the metabolite homocysteine (HCy) on early heart development, the results were similar. Both factors inhibited Wnt/β-catenin-mediated gene expression during induction stages of cardiogenesis. […] Folate protects the embryo from these adverse effects (Han et al., 2009). It was also noted that normal placental development was adversely affected by Li and HCy. A human trophoblast cell line, HTR-8/SVneo cells, was used to determine whether Li or HCy affect the migration of these cells in vitro and whether FA or FA/myo-inositol would protect the cells from adverse effects of the two cardiac teratogens. HCy exposure experiments were conducted. […] The wound edges are depicted by a white line in B. In panel A, it can be seen that the wound area is smaller. Administration of a combination of FA/myo-inositol, FA alone or myo-inositol alone, enhanced the expression of NMHC-IIB and FN to facilitate cell migration.

C57BL/6 mouse embryos [2] = test: Morphometric parameters and resorptions of E15.5 mouse embryos with ethanol exposure and FA diet; assay type: in vivo
Source text: The C57Bl/6 mouse strain (Jackson Laboratories) was used.

Hex and Isl-1 expression = test: In situ hybridization of Hex and Isl-1 in avian embryos after EtOH exposure with or without FA; assay type: in vivo, avian (chick); settings: 30% EtOH; HH stage 4; 8 hour incubation
C57BL/6 mouse embryos [3] = settings: in vivo
[4] = HH stage 3 +/4, HCy 50 μM, Li 50 μM, FA 10 μM, inositol 280 mM
[5] = 30% EtOH 2.9 g/Kg twice i.p. on E6.75
[6] = 30% EtOH 3.5 g/Kg once i.p. on E6.75

Wnt3A
embryos with normal hearts / normal heart development (chick embryos; Wnt3A exposure at HH stages 3+/4, Wnt 2 ng, FA 10 μg): 18% | minimal effective dose that induced cardiac anomalies (chick embryos; in vivo): 2 ng/mL | minimal effective dose that induced neural anomalies (chick embryos; in vivo): 10 ng/mL | Hex and Isl1 expression in the cardiogenic crescent [1]: suppressed

O[C@H]1[C@H](O)[C@@H](O)[C@H](O)[C@@H](O)[C@H]1O [Inositol, myo-inositol]
% Normal Hearts (chick embryos; [4]): 60% | Abnormal (number of embryos) (chick embryos; [4]): 2 | Normal (number of embryos) (chick embryos; [4]): 3 | % Normal Hearts (chick embryos; HH stage 3 +/4, HCy 50 μM, Li 50 μM, FA 10 μM, inositol 280 mM, listed as Inositol only): 60% | expression of NMHC-IIB and FN (HTR-8/SVneo cells): enhanced

CCO [EtOH, ethanol]
Body Weight (C57BL/6 mouse embryos [2]; [5]): 0.37 g | CRL (C57BL/6 mouse embryos [2]; [5]): 12.63 min | Placenta Weight (C57BL/6 mouse embryos [2]; [5]): 0.10 g | Body Weight (C57BL/6 mouse embryos [2]; [6]): 0.35 g | CRL (C57BL/6 mouse embryos [2]; [6]): 11.40 min | Placenta Weight (C57BL/6 mouse embryos [2]; [6]): 0.09 g | Hex and Isl-1 expression in the heart fields (Hex and Isl-1 expression): suppressed | embryos with cardiac valve anomalies (avian embryos; 25% and 30% EtOH, stage 4): 68% | embryos with normal heart development (avian embryos; 25% and 30% EtOH, stage 4, FA (10 mg/ml) concurrently, in vitro and in ovo): 32% | morphological defects (avian embryos; EtOH in vitro at HH stage 4): delayed growth and severe cardiac malformations | effects of 10% EtOH in ovo (avian embryos; quail eggs stage 4, microinjected into airspace): no adverse effects | teratogenic EtOH dose (avian embryos; stage 4 avian embryos): 25-30% | DAPI (C57BL/6 mouse embryos [3]): 1.73 | DVPI (C57BL/6 mouse embryos [3]): 1.21 | E/A Ratio (C57BL/6 mouse embryos [3]): 0.29 | HR (C57BL/6 mouse embryos [3]): 205 bpm | ICT % (C57BL/6 mouse embryos [3]): 10.09% | IRT % (C57BL/6 mouse embryos [3]): 14.93% | MPI (C57BL/6 mouse embryos [3]): 0.62 | OF (C57BL/6 mouse embryos [3]): 26.37 cm/s | RR (C57BL/6 mouse embryos [3]): 293 ms | UAPI (C57BL/6 mouse embryos [3]): 1.75 | abnormalities after one i.p. injection of 3.5 g/kg (C57BL/6 mouse embryos [3]; ip): did not produce any abnormalities | outcome after one i.p. injection of 4.5 g/kg (C57BL/6 mouse embryos [3]; ip): cardiac abnormalities, but the pregnant mouse appeared sickly

— patent US9308210B2, “Method for modulating canonical Wnt pathway using folate and inositol” (University of South Florida, priority 2009, dated 2016)
